A short description of series [1]: Stability of 7-hydroxy AglA derivatives (1H NMR). The class given is physicochemical.
Series [2] deals with HeLa cells. As to conditions: cited from earlier work.
Series [3] in a line: Cancer cell line cytotoxicity assay (MTS or resazurin, 72 h). The class given is cell-based. As to conditions: human. As to the method:
(§1) Cancer Cell Line Cytotoxicity Assays Cancer cell lines (MDA-MB-231, MCF7, Caco2, or U87) were plated on 96-well plates at 2,000 cells per well and incubated for 24 h at 37° C., 5% CO2. AglA and derivatives were dissolved in DMSO, diluted to the appropriate concentrations, and the compound solutions or equivalent concentration of solvent (vehicle) were added to the plate and incubated for 72 h at 37° C., 5% CO2. Following the manufacturer protocol, 20 μL of CellTiter 96® AQueous One Solution Cell Proliferation Assay (MTS, Promega), or CellTiter-Blue@ Cell Viability Assay (resazurin, Promega) was added. The plate was allowed to develop for 1-4 h at 37° C., 5% CO2 and evaluated at 490 nm on an AccuSkan Go (Fisher Scientific) or at 560 nm excitation and 590 nm emission on a VarioSkan Lux Multimode Microplate Reader (Fisher Scientific).

A short description of series [4]: Stability studies of pyrrole-derived carbinolamines 18a-18c (1H NMR). Type of series: physicochemical. The conditions noted are these: in CD3OD. The procedure:
We synthesized pyrrole carboxylic amides 17a-c to study the equilibrium between the corresponding carbinolamines and pyrrolo ketones (FIG. 5). Reduction of 2-azidocyclopentanone and condensation with pyrrole-1H-carboxylic acid gave amide 17b. Upon treatment of ketone 17b with Et3N, cyclization gave the corresponding carbinolamine 18b in 73% yield (>19:1 dr, 600 MHz ^1H NMR). […] When resubjected to NEt3/CH2Cl2 at ambient temperature (22° C.) for 16 h, only a small amount of the ring-opened keto pyrrole 17b was generated leading to an equilibrium ratio of 11:1 (18b/17b) favoring the cyclized form as judged by ^1H NMR. […] In contrast, the 5-bromo pyrrole analog 17a, that most closely mimics the targeted 7-hydroxy AglA, disfavored the closed form 18a.
To a stirred solution of carbinolamine 18b (3.0 mg, 0.016 mmol, 1.0 equiv) in dichloromethane (0.32 mL) was added triethylamine (6.6 μl, 0.047 mmol, 3.0 equiv).
To a stirred solution of carbinolamine 18c (1.2 mg, 0.0044 mmol, 1.0 equiv) was added a solution of triethylamine in dichloromethane (0.1 mL, the solution was made by mixing 19 μl triethylamine and 1.0 mL dichloromethane).
To a 1.0 dram vial was charged 17a (2.7 mg, 0.01 mmol, 1.0 equiv) and a solution of triethylamine in dichloromethane (0.23 mL, […], 3.0 equiv. The solution was made by mixing 19 μl triethylamine and 1.0 mL dichloromethane).
In a 1.5 dram vial, carbinolamine 18b (2.6 mg, 0.014 mmol, 1.0 equiv) was dissolved in THF (0.14 mL) and MeOH (0.14 mL) and the mixture was cooled to 0° C. N-bromosuccinamide (2.5 mg, 0.0142 mmol, 1.05 equiv) was added and the reaction was allowed to warm up to ambient temperature (22° C.). After stirring for 4 h, TLC indicated there was no more starting material and the reaction mixture was concentrated and purified by column chromatography on silica (MeOH/CH2Cl2, 0 to 20%) to give a mixture of 18a/18c/17a (2.4 mg, 65%) in 1:0.6:0.44 ratio. This mixture was monitored by NMR to probe the stability of the 5-bromo derivative in CD3OD. […]

For series [5], the system named is MDA-MB-231. As to the kind of experiment: Cancer cell line cytotoxicity assay (MTS or resazurin, 72 h). The conditions noted are these: MDA-MB-231, 72 h incubation. Type of series: cell-based. The procedure:
as §1
A general note: Resazurin is reduced to fluorescent resorufin, in cell work by metabolically active cells.

Series [6] concerns MCF7. The description is as above. Type of series: cell-based. As to conditions: MCF7, 72 h incubation. The procedure: as §1
Series [7] relates to Caco2. Described as above. As to conditions: Caco2, 72 h incubation. The class given is cell-based. The procedure: as §1
For series [8], the system named is U87. Described as above. Type of series: cell-based. The conditions noted are these: glioblastoma cell line U87, 72 h incubation. The procedure: as §1
For series [9], the system named is Cancer cell lines (MDA-MB-231, MCF7, Caco2, or U87). Briefly: Cancer cell line cytotoxicity, span over all cell lines studied. The class given is cell-based. As to conditions: Homo sapiens; all cell lines studied except Caco-2; read-out: activity against all cell lines studied (span of values). As to the method: as §1
Series [10] relates to glycogen synthase kinase-3β. The conditions noted are these: cited from earlier work.
Sequence of glycogen synthase kinase-3β (P49841 whole entry): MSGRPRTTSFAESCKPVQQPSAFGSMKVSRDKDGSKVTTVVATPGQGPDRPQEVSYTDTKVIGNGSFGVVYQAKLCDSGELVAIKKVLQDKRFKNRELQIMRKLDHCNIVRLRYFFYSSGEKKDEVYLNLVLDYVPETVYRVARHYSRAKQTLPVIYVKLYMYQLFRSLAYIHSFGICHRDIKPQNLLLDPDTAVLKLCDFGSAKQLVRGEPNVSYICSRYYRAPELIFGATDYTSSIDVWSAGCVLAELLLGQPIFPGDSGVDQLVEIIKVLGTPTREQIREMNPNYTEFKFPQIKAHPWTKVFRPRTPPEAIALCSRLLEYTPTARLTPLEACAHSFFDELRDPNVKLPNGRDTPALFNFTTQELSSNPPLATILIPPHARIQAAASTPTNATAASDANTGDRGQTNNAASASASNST
Series [11] deals with osteopontin (OPN, encoded by SPP1) (Homo sapiens, UniProt P10451). The conditions noted are these: cited from earlier work.
Sequence of osteopontin (OPN, encoded by SPP1) (P10451 17-314, species assumed): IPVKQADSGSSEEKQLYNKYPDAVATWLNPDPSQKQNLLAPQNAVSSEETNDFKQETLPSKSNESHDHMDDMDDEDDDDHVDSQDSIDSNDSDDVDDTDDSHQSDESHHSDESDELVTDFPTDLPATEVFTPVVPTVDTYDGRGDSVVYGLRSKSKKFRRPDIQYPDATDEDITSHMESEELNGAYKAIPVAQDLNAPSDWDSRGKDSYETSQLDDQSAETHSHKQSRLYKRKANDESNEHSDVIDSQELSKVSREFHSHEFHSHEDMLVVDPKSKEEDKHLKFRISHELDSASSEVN
Series [12] concerns peptidyl transfer center (PTC) of the ribosome. As to conditions: HeLa cells; cited from earlier work.

Read-outs that look alike come from different tables or passages of the source.

Consider 7-hydroxy AglA [7-OH AglA], for which the “stability (ring-closed carbinolamine vs ring opened ketopyrrole tautomer)” value in [1] is recorded as “instability”; in series [1] (listed as 7-hydroxy AglA) it was “unstable”.
On to 13-des-bromo AglA, for which the “drop in potency compared to AglA” value in [2] was about 500 X.
`CN1C(=O)N[C@H]2[C@@H]3NC(=O)c4cccn4[C@]3(O)C[C@]21O` (racemic) [compound 24, 7-hydroxy-13-des-bromo AglA]: the “stability by 1H NMR” value in series [1] (stored in CD3OD or DMSO-d6 at ambient temperature (22° C.) for 7 days) is “quite stable”. Besides, the EC50 at 72 h was over 250 µM in series [3] (Caco2 cells, Caco2, 72 h incubation); over 250 µM in series [3] (MCF7 cells, MCF7, 72 h incubation); over 250 µM in series [3] (MDA-MB-231 cells, MDA-MB-231, 72 h incubation); 171 ± 8 µM in series [3] (U87 glioblastoma cells, glioblastoma cell line U87, 72 h incubation).
Regarding `O=C1NC2CCCC2(O)n2c(Br)ccc21` (stereo not shown) [18a], the “stability of carbinolamine under neutral conditions” value in [4] is “opened rapidly in CD3OD”.
For `O=C1NC2CCCC2(O)n2cccc21` (stereo not shown) [18b], the “stability of carbinolamine under neutral conditions” value in series [4] is listed as “stable in CD3OD for several days”.
Still for that read-out and setting: for `O=C1NC2CCCC2(O)n2cc(Br)cc21` (stereo not shown) [18c] the value was “stable under neutral conditions”.
`CO[C@@]12C[C@H]3OC(c4ccc(Br)[nH]4)=N[C@H]3[C@@H]1NC(=O)N2C` [26a]: the “cytotoxicity EC50” value in [5], in series [6], in series [7] and in series [8] was “no activity” each time.
Regarding `CN1C(=O)N[C@H]2[C@@H]3NC(=O)c4ccc([N+](=O)[O-])n4[C@@H]3C[C@]21O` [compound 37, 13-nitro AglA], the EC50 in [9] is 1.16 to 35.4 µM.
As for Agelastatin A [AglA], the “inhibition of expression of glycogen synthase kinase-3β” value in series [10] was “inhibits the expression”. For the same molecule, the inhibition of osteopontin entry in [11] is “inhibition of osteopontin”. Further, in [12], the “binding to the peptidyl transfer center of the ribosome” value is given as “binds to the peptidyl transfer center (PTC) of the ribosome”.

(Values after US20240254134A1, “AGELASTATIN A DERIVATIVES AND RELATED METHODS” (ROMO, Daniel, priority 2021, published 2024).)
